Results reported in patent US9790169B2, “IDO inhibitors” (BRISTOL-MYERS SQUIBB COMPANY, priority 2015, dated 2017).
Counter-ions that a name gives are not always drawn.

target: human IDO1 (Homo sapiens, UniProt P14902); assay: Assessment of human IDO-1 inhibitory activity in HEK cells (human IDO1/HEK293 cells, kynurenine read-out with Ehrlich reagent, absorbance 490 nm); format: cell-based; design: expressed in transfected cells; conditions: HEK Human IDO-1 cellular assay
Method in brief: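 Kynurenine output from stably IDO1-transfected HEK293 cells (10,000/well, phenol red-free RPMI, 10% FBS) after 20 h compound exposure at 37 °C. The reaction was stopped with 0.2% TCA and heated 30 min at 50 °C, then the supernatant was mixed with Ehrlich reagent and read at 490 nm. IC50 was set against DMSO and a 500 nM reference standard as 0 and 100% inhibition.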

Sequence of human IDO1 (P14902 whole entry): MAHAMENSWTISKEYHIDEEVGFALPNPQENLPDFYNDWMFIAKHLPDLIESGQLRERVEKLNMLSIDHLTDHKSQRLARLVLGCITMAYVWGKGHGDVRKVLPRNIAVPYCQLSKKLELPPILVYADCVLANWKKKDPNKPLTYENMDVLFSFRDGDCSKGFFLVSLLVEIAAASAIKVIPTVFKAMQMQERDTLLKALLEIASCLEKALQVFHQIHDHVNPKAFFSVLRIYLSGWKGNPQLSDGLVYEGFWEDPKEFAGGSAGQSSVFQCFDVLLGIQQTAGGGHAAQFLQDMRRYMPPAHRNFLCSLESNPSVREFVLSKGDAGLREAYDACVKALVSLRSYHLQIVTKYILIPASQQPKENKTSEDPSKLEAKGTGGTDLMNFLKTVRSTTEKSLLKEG

`CCC(CC(=O)O)c1cc(F)c(N(CC(C)C)CC(C)C)c(Nc2ccc(F)cc2)c1` (single isomer, unassigned) [Example 100, 3-(4-(diisobutylamino)-3-fluoro-5-((4-fluorophenyl)amino)phenyl)pentanoic acid] and `CCC(CC(=O)O)c1cc(F)c(N(CC(C)C)CC(C)C)c(Nc2ccc3c(c2)OC(F)(F)O3)c1` (single isomer, unassigned) [Example 101, 3-(3-((2,2-difluorobenzo [d][1,3]dioxol-5-yl)amino)-4-(diisobutylamino)-5-fluorophenyl)pentanoic acid] cannot be ordered by IC50: under 0.005 µM for the first, under 0.005 µM for the second.

`CCOc1ccc(Nc2cc(C(CC)CC(=O)O)ccc2N2CCOC[C@H]2C(C)C)cc1` (single isomer, unassigned) [Example 894] and `CCC(CC(=O)O)c1ccc(N2CCOC[C@H]2C(C)C)c(Nc2ccc3c(c2)OC(F)(F)O3)c1` (single isomer, unassigned) [Example 904] cannot be ordered by IC50: under 0.05 µM for the first, under 0.005 µM for the second.

Compared with `CCOc1ccc(Nc2cc([C@@H](CC)CC(=O)O)ccc2N(CC)C2CCOCC2)nc1` (single isomer, unassigned) [Example 482], `CC[C@H](CC(=O)O)c1ccc(N(CC)C2CCOCC2)c(Nc2cn3ccnc3cn2)c1` (single isomer, unassigned) [Example 523] is higher in IC50: under 0.005 µM for the first, over 0.05 µM for the second.

`CCC(CC(=O)O)c1ccc(N(CC2CC2)C2CCOCC2)c(Nc2ccc3nc(C)sc3c2)c1` (single isomer, unassigned) [Example 701, 3-(4-((Cyclopropylmethyl)(tetrahydro-2H-pyran-4-yl)amino)-3-((2-methylbenzo[d]thiazol-6-yl)amino)phenyl)pentanoic acid] and `CCOc1ncc(Nc2cc(C(CC)CC(=O)O)ccc2N(CC2CC2)C2CCOCC2)cn1` (single isomer, unassigned) [Example 705, 3-(4-((cyclopropylmethyl) (tetrahydro-2H-pyran-4-yl)amino)-3-((2-ethoxypyrimidin-5-yl)amino)phenyl)pentanoic acid] cannot be ordered by IC50: under 0.05 µM for the first, under 0.005 µM for the second.

`CCC(CC(=O)O)c1ccc(N(CC(C)C)C2CCCCC2)c(Nc2ccc(OC(F)(F)F)cc2)c1` (single isomer, unassigned) [Example 312, 3-(4-(cyclohexyl(isobutyl)amino)-3-((4-(trifluoromethoxy)phenyl)amino)phenyl)pentanoic acid] and `CC[C@H](CC(=O)O)c1ccc(N(CC(C)(C)O)C2CCCCC2)c(Nc2ccc(C#N)cc2)c1` (single isomer, unassigned) [Example 238] cannot be ordered by IC50: under 0.005 µM for the first, under 0.005 µM for the second.

`CCOc1ccc(NC(=O)Nc2cc(C(COC)CC(=O)O)cc(F)c2N(CC(C)C)C2CCCCC2)cc1` (single isomer, unassigned) [Example 1153, 3-(4-(cyclohexyl(isobutyl)amino)-3-(3-(4-ethoxyphenyl)ureido)-5-fluorophenyl)-4-methoxybutanoic acid] and `COCC(CC(=O)O)c1cc(F)c(N(CC(C)C)C2CCCCC2)c(NC(=O)Cc2ccc(C)cc2)c1` (single isomer, unassigned) [Example 1170, 3-(4-(cyclohexyl(isobutyl)amino)-3-fluoro-5-(2-(p-tolyl)acetamido)phenyl)-4-methoxybutanoic acid] cannot be ordered by IC50: under 0.05 µM for the first, under 0.05 µM for the second.

`CCCN(CC1CC1)c1ccc(C(CC)CC(=O)O)cc1Nc1ccc2c(c1)OC(F)(F)O2` (single isomer, unassigned) [Example 662, 3-(4-((cyclopropylmethyl)(propyl)amino)-3-((2,2-difluorobenzo[d] [1,3]dioxol-5-yl)amino)phenyl) pentanoic acid] and `CC[C@@H](CC(=O)O)c1ccc(N(CC)C2CCOCC2)c(Nc2ccc(Cl)cc2)c1` (single isomer, unassigned) [Example 456] cannot be ordered by IC50: under 0.005 µM for the first, under 0.005 µM for the second.

`CCC(CC(=O)O)c1cc(F)c(N(CC(C)C)CC(C)C)c(NC(=O)Cc2ccc(C)cc2F)c1` (single isomer, unassigned) [Example 1094 E2] and `CCC(CC(=O)O)c1cc(F)c(N(CC(C)C)CC(C)C)c(NC(=O)Cc2ccc(F)cc2F)c1` (single isomer, unassigned) [Example 1093 E2] cannot be ordered by IC50: under 0.005 µM for the first, under 0.005 µM for the second.

Going from `CCN(c1ccc(C(CC(=O)O)c2ccccc2)cc1NC(=O)Nc1ccc(C)cc1)C1CCOCC1` (single isomer, unassigned) [Example 584, 3-(4-(Ethyl(tetrahydro-2H-pyran-4-yl)amino)-3-(3-(p-tolyl)ureido)phenyl)-3-phenylpropanoic acid] to `CC[C@H](CC(=O)O)c1ccc(N(CC)C2CCOCC2)c(NC(=O)Nc2ccc(OC)cc2F)c1` (single isomer, unassigned) [Example 530], the IC50 falls from over 0.05 µM to under 0.005 µM. The second is the more potent here.

`CCN(c1ccc([C@H](COC)CC(=O)O)cc1NC(=O)Nc1ccc(OC)cc1F)C1CCOCC1` (single isomer, unassigned) [Example 435] and `CC[C@@H](CC(=O)O)c1ccc(N(CC)C2CCOCC2)c(NC(=O)Nc2cc(C)on2)c1` (single isomer, unassigned) [Example 497] cannot be ordered by IC50: over 0.05 µM for the first, over 0.05 µM for the second.

Going from `CC[C@H](CC(=O)O)c1ccc(N(CC(C)C)CC(C)C)c(Nc2ccc3nc(C)sc3c2)c1` (single isomer, unassigned) [Example 10] to `CCC(CC(=O)O)c1ccc(N(CC(C)C)CC(C)C)c(NC(=O)Cc2ccc(C#N)cc2)c1` (racemic) [Example 950, (+/−)-3-(3-(2-(4-Cyanophenyl)acetamido)-4-(diisobutylamino)phenyl)pentanoic acid], the IC50 falls from over 0.05 µM to under 0.005 µM. The second is the more potent here.

`CCC(CC(=O)O)c1cc(NC(=O)Nc2cc(C)no2)c(N(CC(C)C)C2CCCCC2)cc1F` (racemic) [Example 1113, (±)-3-(4-(Cyclohexyl(isobutyl)amino)-2-fluoro-5-(3-(3-methylisoxazol-5-yl)ureido)phenyl)pentanoic acid] and `CCC(CC(=O)O)c1cc(NC(=O)Nc2cnc(C)nc2)c(N(CC(C)C)C2CCCCC2)cc1F` (racemic) [Example 1125, (±)-3-(4-(Cyclohexyl(isobutyl)amino)-2-fluoro-5-(3-(2-methylpyrimidin-5-yl)ureido)phenyl)pentanoic acid] cannot be ordered by IC50: under 0.005 µM for the first, under 0.005 µM for the second.

`CCOc1ncc(Nc2cc(C(C)CC(=O)O)ccc2N(CC(C)(C)O)C2CCCCC2)cn1` (single isomer, unassigned) [Example 54, 3-(4-(cyclohexyl(2-hydroxy-2-methylpropyl)amino)-3-((2-ethoxypyrimidin-5-yl)amino)phenyl)butanoic acid] and `CCOc1ncc(Nc2cc([C@@H](CC)CC(=O)O)ccc2N(CC)C2CCCCC2)cn1` (single isomer, unassigned) [Example 281] cannot be ordered by IC50: under 0.05 µM for the first, under 0.05 µM for the second.

Compared with `CCC(CC(=O)O)c1cc(F)c(N(CC(C)C)CC(C)C)c(NC(=O)Nc2cc(C(C)(C)C)on2)c1` (racemic) [Example 971, (+/−)-3-(3-(3-(5-(tert-Butyl)isoxazol-3-yl)ureido)-4-(diisobutylamino)-5-fluorophenyl)pentanoic acid, TFA], `Cc1ccc(NC(=O)Nc2cc(C(C)CC(=O)O)c(F)cc2N(CC(C)C)C2CCCCC2)cc1` (racemic) [Example 955, (+/−)-3-(4-(Cyclohexyl(isobutyl)amino)-2-fluoro-5-(3-(p-tolyl)ureido)phenyl)butanoic acid] is lower in IC50: over 0.05 µM for the first, under 0.005 µM for the second.

Compared with `CCC(CC(=O)O)c1ccc(N(CC)C2CCCOC2)c(Nc2cnc(OC)nc2)c1` (single isomer, unassigned) [Example 71, 3-(4-(ethyl(tetrahydro-2H-pyran-3-yl)amino)-3-((2-methoxypyrimidin-5-yl)amino)phenyl)pentanoic acid], `CCOc1ncc(Nc2cc([C@H](CC)CC(=O)O)ccc2N(CC(C)(C)O)C2CCOCC2)cn1` (single isomer, unassigned) [Example 202] is higher in IC50: under 0.05 µM for the first, over 0.05 µM for the second.

Compared with `COCC(CC(=O)OC)c1ccc(N(CC(C)C)C2CCCCC2)c(NC(=O)Nc2ccc(C)cc2)c1` (racemic) [Example 1223, (+/−)-Methyl 3-(4-(cyclohexyl(isobutyl)amino)-3-(3-(p-tolyl)ureido)phenyl)-4-methoxybutanoate], `COCC(CC(=O)O)c1ccc(N(CC(C)C)C2CCCCC2)c(NC(=O)Nc2ccc(C)cc2)c1` (racemic) [Example 988, (+/−)-3-(4-(Cyclohexyl(isobutyl)amino)-3-(3-(p-tolyl)ureido)phenyl)-4-methoxybutanoic acid] is lower in IC50: over 0.05 µM for the first, under 0.005 µM for the second. The second is the more potent here.

`CC[C@@H](CC(=O)O)c1ccc(N(CC)C2CCOCC2)c(Nc2ccc(S(=O)(=O)CC)cc2)c1` (single isomer, unassigned) [Example 485] and `CCc1ccc(Nc2cc([C@@H](COC)CC(=O)O)ccc2N(CC)C2CCOCC2)cc1` (single isomer, unassigned) [Example 374] cannot be ordered by IC50: under 0.05 µM for the first, under 0.005 µM for the second.

`CC[C@@H](CC(=O)O)c1ccc(N(CC)C2CCOCC2)c(Nc2ccn3nccc3n2)c1` (single isomer, unassigned) [Example 468] and `COc1ncc(Nc2cc(C(C)CC(=O)O)ccc2N(CC(C)(C)O)C2CCOCC2)cn1` (single isomer, unassigned) [Example 192, 3-(4-((2-hydroxy-2-methylpropyl)(tetrahydro-2H-pyran-4-yl)amino)-3-((2-methoxypyrimidin-5-yl)amino)phenyl)butanoic acid] cannot be ordered by IC50: over 0.05 µM for the first, over 0.05 µM for the second.

`CC(CC(=O)O)c1ccc(N2C[C@@H](C)O[C@@H](C)C2)c(Nc2ccc(C#N)cc2)c1` (single isomer, unassigned) [Example 737] and `CCOc1ncc(Nc2cc(C(C)(C)CC(=O)O)ccc2N2C[C@@H](C)O[C@@H](C)C2)cn1` [Example 736, 3-(4-((2S,6R)-2,6-dimethylmorpholino)-3-((2-ethoxypyrimidin-5-yl)amino)phenyl)-3-methylbutanoic acid] cannot be ordered by IC50: over 0.05 µM for the first, over 0.05 µM for the second.

`CCc1cnc(Nc2cc(C(CC)CC(=O)O)ccc2N(CC(C)C)C2CCCCC2)nc1` (single isomer, unassigned) [Example 302, 3-(4-(cyclohexyl(isobutyl)amino)-3-((5-ethylpyrimidin-2-yl)amino)phenyl)pentanoic acid] showed an IC50 of under 0.005 µM.
